# Assay results: patent publication US10961196B2, “Compounds for use as an anti-bacterial or anti-fungal agent and as a zinc sensor” (UNIVERSITÄT KONSTANZ, priority 2016, dated 2021)
# Where “and” joins values, the source holds several entries; their conditions need not be identical. Equal values may be shown once.
# Tests used:
# elastase (LasB) [1] = target: elastase (LasB) (Pseudomonas aeruginosa, UniProt P14756); assay: In vitro elastase assay with fluorogenic substrate Abz-peptide-Nba; type: biochemical, P. aeruginosa
# Method: Example 16: In Vitro Inhibition of Elastase (LasB) with Compounds 6, 7, and 12
# An in-vitro elastase assay was performed according to Cathcart et al. (G. R. Cathcart, B. F. Gilmore, B. Greer, P. Harriott, B. Walker, Bioorganic & medicinal chemistry letters 2009, 19, 6230-6232). For a typical in vitro elastase assay 82 μL buffer (0.05 M TRIS HCl, 2.5 mM CaCl2, pH=7.2) and 5 μL of compound 6 solved in DMSO were added in a 96 well plate. 10 μL of 3 μg/mL elastase (solved in the same Tris/CaCl2 buffer) were added and mixed with the compound. After incubation for 10 min at room temperature, 3 μL fluorogenic substrate Abz-peptide-Nba (2-aminobenzoyl-Ala-Gly-Leu-Ala-4-nitrobenzylamide) in DMF were added and the fluorescence measured for 90 min in one minute steps (excitation at 330 nm, emission at 460 nm). The slope of the resulting graph was used to calculate the enzymatic activity.
# [2] = tested on: S. aureus DSM18827 (MRSA); assay: Minimum inhibitory concentration (MIC), 96-well plates, serial dilutions in LB medium; type: cell-based; conditions: Staphylococcus aureus, DSM 11827 / DSM 18827 / MRSA; S. aureus DSM18827 (also printed DSM11827), MRSA, LB medium; read-out: Minimum inhibitory concentration (MIC)
# Description: (§1) Example 12: Determination of the Minimum Inhibitory Concentration (MIC) with Non-Pathogenic E. coli and B. subtilis and/or Pathogenic Strains of S. aureus Including Three MRSA Strains (USA 300, Mu50 and DSM18827) as Well as the Pathogenic Fungus Candida albicans
# (§2) Minimum inhibitory concentrations (MIC) for compounds 1 to 11 with non-pathogenic E. coli and B. subtilis and/or pathogenic strains of S. aureus including three MRSA strains (USA 300, Mu50 and DSM18827) as well as the pathogenic fungus Candida albicans were determined in 96-well plates with serial dilutions in LB medium.
# S. aureus Mu50 (MRSA) = assay: as above; type: cell-based; conditions: Staphylococcus aureus; S. aureus Mu50 (MRSA), LB medium; read-out: Minimum inhibitory concentration (MIC)
# Description: as §1, §2
# Candida albicans = assay: as above; type: cell-based; conditions: C. albicans, LB medium, read-out: Minimum inhibitory concentration (MIC)
# Description: as §1, §2
# B. subtilis = assay: as above; type: cell-based; conditions: Bacillus subtilis; B. subtilis, LB medium; read-out: Minimum inhibitory concentration (MIC)
# Description: as §1, §2
# S. aureus NCTC 8325 = assay: as above; type: cell-based; conditions: Staphylococcus aureus, NCTC8325; S. aureus NCTC 8325, LB medium; read-out: Minimum inhibitory concentration (MIC)
# Description: as §1, §2
# S. aureus USA 300 (MRSA) = assay: as above; type: cell-based; conditions: Staphylococcus aureus; S. aureus USA 300 (MRSA), LB medium; read-out: Minimum inhibitory concentration (MIC)
# Description: as §1, §2
# Example 21: Determination of the Minimum Inhibitory Concentration (MIC) for the Compounds Represented by the Formulas (14) and (16) with the Pathogenic USA 300 (MRSA) Strain of S. aureus
# Minimum inhibitory concentrations (MIC) for the compounds represented by the Formulas (14) and (16) with the pathogenic MRSA strains of S. aureus USA 300 were determined in 96-well plates with serial dilutions in LB medium.
# elastase (LasB) [3] = target: T1, elastase (LasB) (Pseudomonas aeruginosa, UniProt Q02RJ6); assay: In situ inhibition of elastolytic activity (Elastin-Congo Red) with life cultures of P. aeruginosa PA14; type: cell-based
# T1 construct: 1.4 mL of the culture was centrifuged and the supernatant filtered through a sterile filter; endogenous in cells; host or cells: P. aeruginosa PA14 culture (supernatant)
# Method: Example 17: In Situ Inhibition of Elastase (LasB) with Compound 6
# The in situ efficacy of Compound 6 was investigated by measuring the concentration dependent inhibition of elastolytic activity with life cultures of P. aeruginosa. The elastase assay was performed according to Calfee et al. (M. W. Calfee, J. P. Coleman, E. C. Pesci, Proceedings of the National Academy of Sciences of the United States of America 2001, 98, 11633-11637.) 10 μL of an overnight culture of PA14 was added to 3 mL of PTSB medium together with 15 μL of Compound 6 dissolved in DMSO at different stock concentrations. The culture was incubated for 24 h at 37° C. and 200 rpm. 1.4 mL of the culture was centrifuged and the supernatant filtered through a sterile filter. Thereafter, 0.5 mL ECR-buffer (0.1 M Tris HCl, 1 mM CaCl2, pH=7.2) together with 10 mg Elastin-Congo Red was added to 0.5 ml of the sterile flow-through and the mixture incubated for 3 h at 37° C. and 1600 rpm. After the incubation, 0.1 mL Na2EDTA (0.12 M) was added to quench the enzymatic reaction. After mixing, the solution was centrifuged (10 min at 6000 rpm) and 0.2 mL of the supernatant measured at 495 nm in a 96 well plate. It was observed that Compound 6 is an efficient inhibitor of elastolytic activity in situ resulting in sigmoidal inhibition behaviour with an IC50 of 40 μM (cf. FIG. 9).
# T1 sequence (Q02RJ6 198-498): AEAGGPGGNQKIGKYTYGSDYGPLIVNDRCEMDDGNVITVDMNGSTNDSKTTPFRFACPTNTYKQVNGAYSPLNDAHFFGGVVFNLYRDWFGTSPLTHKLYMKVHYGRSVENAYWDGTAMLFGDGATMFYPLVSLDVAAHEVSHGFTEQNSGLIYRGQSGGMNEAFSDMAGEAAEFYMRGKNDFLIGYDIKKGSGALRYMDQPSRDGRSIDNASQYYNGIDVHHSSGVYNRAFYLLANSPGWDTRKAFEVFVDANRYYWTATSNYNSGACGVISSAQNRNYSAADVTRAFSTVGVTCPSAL
# Sequence of elastase (LasB) (Pseudomonas aeruginosa, UniProt P14756) (P14756 198-498): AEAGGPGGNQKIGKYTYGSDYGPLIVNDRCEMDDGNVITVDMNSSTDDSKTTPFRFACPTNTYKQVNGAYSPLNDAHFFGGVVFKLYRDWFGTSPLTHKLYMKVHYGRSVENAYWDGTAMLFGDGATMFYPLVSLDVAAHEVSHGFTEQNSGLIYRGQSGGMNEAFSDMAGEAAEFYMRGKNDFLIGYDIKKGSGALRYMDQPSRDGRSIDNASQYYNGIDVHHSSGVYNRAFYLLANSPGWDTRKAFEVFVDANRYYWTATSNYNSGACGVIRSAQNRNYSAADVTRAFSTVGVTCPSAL
structure (smiles),measurement,setting,value
"CCCCCCCc1[nH]c2ccccc2c(=S)c1O [Compound 6, 2-heptyl-3-hydroxyquinoline-4(1H)-thione]",IC50,elastase (LasB) [1],4 µM
same,MIC,[2],150 µM and 41.3 µg/mL
same,MIC,S. aureus Mu50 (MRSA),150 µM and 41.3 µg/mL
same,MIC,Candida albicans,100 µM and 27.5 µg/mL
same,MIC,B. subtilis,125 µM and 34.4 µg/mL
same,MIC,S. aureus NCTC 8325,100 µM and 27.5 µg/mL
same,MIC,S. aureus USA 300 (MRSA),150 µM and 41.3 µg/mL
same,IC50,elastase (LasB) [3],40 µM
